Experiment: Pharmacokinetics of aprepitant emulsion vs fosaprepitant solution, intravenous
Assay type: in vivo, male Sprague-Dawley rats
Conditions: rat, equivalent to 14 mg/kg aprepitant
Procedure: The pharmacokinetics of an aprepitant emulsion prepared according to Example 1 was determined. Two groups of six male Sprague-Dawley rats each were injected intravenously with, respectively, fosaprepitant in solution or aprepitant emulsion prepared according to Example 1. All drugs were administered at an effective concentration equivalent to 14 mg/kg aprepitant. Blood from all rats was collected at the appropriate time intervals and processed to plasma by centrifugation. Plasma samples were analyzed by LC-MS/MS for aprepitant and fosaprepitant, as appropriate. A plasma concentration versus time curve of aprepitant for the emulsion described in Example 1 and for fosaprepitant is presented in FIG. 2 (fosaprepitant in solution, ●; aprepitant emulsion, ▴). The curves indicate the initial aprepitant level reached immediately after injection of the aprepitant emulsion was almost 3 times higher than the initial aprepitant level reached immediately after injection of the fosaprepitant solution.

Plasma levels of aprepitant by the 3-hour time point, emulsion vs fosaprepitant solution: essentially the same
Structure (SMILES): C[C@@H](O[C@H]1OCCN(Cc2nc(O)n(P(=O)(O)O)n2)[C@H]1c1ccc(F)cc1)c1cc(C(F)(F)F)cc(C(F)(F)F)c1 [fosaprepitant]

— US12290520B2, “Methods of use of emulsion formulations of aprepitant” (Heron Therapeutics, Inc., priority 2014, dated 2025)
